Experimental data: patent US7385051B2, “Fluorescent N2,N3-etheno-purine (2′-deoxy) riboside derivatives and uses thereof” (Bar-llan University, priority 2005, dated 2008)
Values joined by “and” are separate entries in the source; they are usually repeats but may differ in a detail not shown here. Equal entries are not always repeated. “Also recorded” adds a separate entry of the source. Where two headings read alike, the source gives them in different places.

What was measured:
[1] = Absorption spectra (UV-Visible) in aqueous solution at several pH values; assay type: physicochemical; design: Absorption λmax: unit not given here
Method: Absorption spectra of compounds 4 and 23 were measured using a Varian array-1E UV-Visible spectrometer. Spectra were determined in dilute HCl or NaOH solutions in the pH range of 1.6-12.3 or at pH 7.0. The concentration of the samples of 4 in aqueous solutions and in organic solvents was of the order of 4.85×10^−5 M and of 23 in aqueous solutions was of the order of 5.04×10^−5 M.

Fluorescence life-time = assay type: physicochemical
Method: Fluorescent emission is a random process, and the excited molecules emit photons within a certain time, usually of the order of ns. For N^2,N3-ε-A, 4, and N^2,N3-ε-2′-deoxy-A, 23, fluorescence life times of 2.26 and 2.1 ns, respectively, were measured. These life times are relatively long and are therefore more convenient for the fluorescence measurements.

[2] = pKa determination by pH-titration monitored by fluorescence spectroscopy; assay type: physicochemical
Excerpt: H-bonding pattern of N^2,N3-ε-A is dependent not only on tautomeric equilibria, but also on acid-base equilibria, namely, on protonation states. For analyzing the protonation state of N^2,N3-ε-A at physiological pH, we determined the pKa values of this system.
Specifically, we monitored the pH-titration of N^2,N3-E-A, 4, by fluorescence spectroscopy. 1×10^−5 M solutions of N^2,N3-ε-A-5′-mono-phosphate were titrated by HCl in the pH range of 1.5-7.0.

[3] = Emission (fluorescence) spectra and quantum yield, quinine sulfate as reference; assay type: physicochemical; design: Emission λmax: unit not given here; conditions: for Maximum emission (λmax) in water / Quantum yield (φ) in water: excitation at 290 nm (4), 330 nm (17); for φ290: 290 nm
Method: Emission spectra of compounds 4 and 23 were measured using an Aminco-Bowman series 2 Luminescence Spectrometer. Measurement conditions included: 740-750 V sensitivity, and a 4 or 2 nm slit in the emission spectra for aqueous or organic solutions, respectively. Emission spectra were corrected by the subtraction of the medium's emission spectrum. Spectra were determined in dilute HCl or NaOH solutions in the pH range of 1.6-12.3 or at pH 7. The concentration of the samples of 4 was of the order of 4.85×10^−5 M for aqueous and organic solutions and of 23 in the order of 5.04×10^−5 M for aqueous solutions. All organic solvents were freshly distilled prior to emission measurements. Measurements of the emission of the nucleoside analogue were conducted with subtraction of the solvent's emission. The quantum yield of each compound was calculated from the observed absorbance at 290 nm and the area of the fluorescence emission band. Quinine sulfate was used as reference compound assuming a quantum yield value of 0.55 (Andrew et al., 1988).

[4] = cited from earlier work
[5] = Stability under automated DNA synthesis conditions (TLC and MS); assay type: physicochemical
Method: In order for a compound to be used in automated DNA synthesis, it has to be able to withstand the conditions of the different reactions in the synthesis. For example, it has to be stable in the treatment with 28% ammonia for two hours at 60° C.

rat brain P2Y1-receptor = target: T1, rat brain P2Y1-receptor (Rattus norvegicus, UniProt P49651); experiment: Agonist-induced Ca2+ release in HEK 293 cells stably transfected with P2Y1-receptor; assay type: cell-based; conditions: HEK 293 cells with rat brain P2Y1-receptor
T1 construct: expressed in transfected cells
T1 sequence (P49651 whole entry): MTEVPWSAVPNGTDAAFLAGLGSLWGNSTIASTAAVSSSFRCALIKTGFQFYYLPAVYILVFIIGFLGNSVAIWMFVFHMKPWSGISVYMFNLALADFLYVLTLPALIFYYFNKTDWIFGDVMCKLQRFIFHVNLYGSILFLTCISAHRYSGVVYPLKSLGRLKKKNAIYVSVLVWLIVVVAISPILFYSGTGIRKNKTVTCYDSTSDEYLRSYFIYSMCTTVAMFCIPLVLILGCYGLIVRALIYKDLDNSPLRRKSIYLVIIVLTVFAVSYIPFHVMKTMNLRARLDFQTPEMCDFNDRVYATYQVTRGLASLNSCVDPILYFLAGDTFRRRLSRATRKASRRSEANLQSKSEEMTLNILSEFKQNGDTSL
Excerpt: To examine the efficacy of analogues 30a,d in a functional assay, we tested them by the agonist-induced Ca^2+ release in HEK 293 cells stably transfected with rat brain P2Y1-receptor (FIG. 6) (Voehringer et al., 2000). […] However, a benzyl substitution at N^6 of 30a, as in analogue 30d, reduced the ligand's potency. […] EC50 value in the range of 10^−6 M.

[6] = cited from earlier work; remark: listed apart in the source
[7] = 1×10^−5 M solutions of the 5′-mono-phosphate titrated by HCl, pH 1.5-7.0, listed as N^2,N3-ε-A
[8] = in DMF (εd 37.6), 4.85 × 10^−5 M
[9] = in DMSO (εd 47.6), 4.85 × 10^−5 M
[10] = in Dioxane (εd 2.2), 4.85 × 10^−5 M

Nc1nc2nccn2c2c1ncn2C1OC(CO)C(O)C1O (centres unmarked) [Compound 4, N^2,N3-etheno-adenosine]
Absorption bands in water ([1]; in water): 234 nm and 274 nm
Absorption coefficient of the band at 234 nm ([1]; in water, 234 nm): 12.6×10^3
Absorption coefficient of the band at 274 nm ([1]; in water, 274 nm): 3.3×10^3
Absorption λmax ([1]; pH 1.6, 4.85 × 10^−5 M): 224 and 268
εd ([1]; pH 1.6, band at λmax 224): 6.17 × 10^3
εd ([1]; pH 1.6, band at λmax 268): 14.22 × 10^3
Absorption λmax ([1]; pH 7.0, 4.85 × 10^−5 M): 234 and 274
εd ([1]; pH 7.0, band at λmax 234): 12.58 × 10^3
εd ([1]; pH 7.0, band at λmax 274): 3.31 × 10^3
Absorption λmax ([1]; pH 12.3, 4.85 × 10^−5 M): 234 and 276
εd ([1]; pH 12.3, band at λmax 234): 13.89 × 10^3
εd ([1]; pH 12.3, band at λmax 276): 3.69 × 10^3
Fluorescence life time (Fluorescence life-time): 2.26 ns
pKa (first; assigned to the exocyclic amine) [2, 7]: 1.92
pKa (second; attributed to N8) [2, 7]: 3.16
pKa (third; N7, most basic nitrogen) [2, 7]: 6.09
pKa (first; assigned to the exocyclic amine) ([2]; pH 1.5): 1.92±0.08
pKa (second; attributed to N8) ([2]; pH 1.5): 3.16±0.24
pKa (third; N7, most basic nitrogen) ([2]; pH 1.5): 6.09±0.16
Non-protonated fraction at physiological pH ([2]; pH 7.4): 96%
Fluorescence at acidic pH ([3]; acidic pH): significant fluorescence
Emission λmax [3, 8]: 448
φ (quantum yield) [3, 8]: 0.082
Emission λmax [3, 9]: 458
φ (quantum yield) [3, 9]: 0.085
Emission λmax [3, 10]: 434
φ (quantum yield) [3, 10]: 0.042
Maximum emission (λmax) in water [3]: 420 nm
Quantum yield (φ) in water [3]: 0.03
Emission λmax ([3]; pH 1.6, 4.85 × 10−5 M): 396
φ (quantum yield) ([3]; pH 1.6, 4.85 × 10−5 M): 0.021
Emission λmax ([3]; pH 7.0, 4.85 × 10−5 M): 420
φ (quantum yield) ([3]; pH 7.0, 4.85 × 10−5 M): 0.032
Emission λmax ([3]; pH 12.3, 4.85 × 10−5 M): 420
φ (quantum yield) ([3]; pH 12.3, 4.85 × 10−5 M): 0.031

CSc1nc2nccn2c2c1ncn2C1OC(CO)C(O)C1O (centres unmarked) [Compound 17, N^2,N3-etheno-6-methylthio-purine riboside]
Absorption bands in water ([1]; in water): 227 nm and 247 nm and 307 nm and 345 nm
Absorption λmax ([1]; pH 1.6, 5.04 × 10^−5 M): 227 and 243 and 301 and 331
εd ([1]; pH 1.6, band at λmax 227): 16.52 × 10^3
εd ([1]; pH 1.6, band at λmax 243): 13.57 × 10^3
εd ([1]; pH 1.6, band at λmax 301): 7.39 × 10^3
εd ([1]; pH 1.6, band at λmax 331): 7.13 × 10^3
Absorption λmax ([1]; pH 7.0, 5.04 × 10^−5 M): 231 and 247 and 307 and 345
εd ([1]; pH 7.0, band at λmax 231): 16.09 × 10^3
εd ([1]; pH 7.0, band at λmax 247): 13.25 × 10^3
εd ([1]; pH 7.0, band at λmax 307): 7.07 × 10^3
εd ([1]; pH 7.0, band at λmax 345): 2.90 × 10^3
Absorption λmax ([1]; pH 12.3, 5.04 × 10^−5 M): 233 and 307
εd ([1]; pH 12.3, band at λmax 233): 19.29 × 10^3
εd ([1]; pH 12.3, band at λmax 307): 5.95 × 10^3
Maximum emission (λmax) in water [3]: 520 nm and 518 nm
Quantum yield (φ) in water [3]: 0.15
Emission λmax ([3]; pH 1.6, 5.04 × 10^−5 M): 492 and 516
φ (quantum yield) ([3]; pH 1.6, 5.04 × 10^−5 M): 0.037
Emission λmax ([3]; pH 7.0, 5.04 × 10^−5 M): 494 and 518
φ (quantum yield) ([3]; pH 7.0, 5.04 × 10^−5 M): 0.152
Emission λmax ([3]; pH 12.3, 5.04 × 10^−5 M): 494 and 520
φ (quantum yield) ([3]; pH 12.3, 5.04 × 10^−5 M): 0.067

OC[C@H]1O[C@@H](n2cnc3c2ncn2ccnc32)[C@H](O)[C@@H]1O [Compound 1, N1,N^6-etheno-adenosine]
Emission λmax ([4]; Secrist et al., 1972, Thomas and Leonard, 1976): 415 nm

O=c1c2ncn(C3O[C@H](CO)[C@@H](O)[C@H]3O)c2[nH]c2nccn12 (some centres unmarked) [Compound 5]
Fluorescence ([4]; Sattsangi et al., 1977, Kusmierek et al., 1992): non-fluorescent

Nc1nc2nccn2c2c1ncn2C1CC(O)C(CO)O1 (centres unmarked) [Compound 23]
ε (238 nm) ([1]; pH 7.0): 4.67×10^3
ε (308 nm) ([1]; pH 7.0): 1.23×10^3
Fluorescence life time (Fluorescence life-time): 2.1 ns
Stability against 2% dichloroacetic acid ([5]; 2% dichloroacetic acid, 2 min): stable
Stability in 28% ammonia ([5]; 28% ammonia, two hours at 60° C.): stable
φ290 ([3]; pH 7.0): 0.085

O=P(O)(O)OP(=O)(O)OP(=O)(O)OCC1OC(n2cnc3c(NCc4ccccc4)nc4nccn4c32)C(O)C1O (centres unmarked) [Compound 30d, N^6-Benzyl-N^2,N3-ethenoadenosine-5′-triphosphate]
EC50 (rat brain P2Y1-receptor; Ca^2+ release): ~1000 nM
Potency at P2Y1-R compared to ATP / 30a (rat brain P2Y1-receptor): reduction by one order of magnitude; also recorded: significant reduction of the affinities

Nc1c2ncn(C3CC(O)C(CO)O3)c2nc2nccn12 (centres unmarked) [Compound 25, N1,N^2-etheno-2′-deoxy-adenosine]
ε (238 nm) ([1]; pH 7.0): 4.12×10^3
ε (308 nm) ([1]; pH 7.0): 1.02×10^3
φ290 ([3]; pH 7.0): 0.07

O=c1nc2[nH]ccn2c2c1ncn2[C@@H]1O[C@H](CO)[C@@H](O)[C@H]1O [Compound 3, N^2,N3-etheno-guanosine]
Maximum emission ([4]; excitation at 280 nm, Sattsangi et al., 1977): 410 nm
Emission maximum in water ([4]; in water, Kusmierek et al., 1987): 410 nm
pKa ([6]; literature (Glemarec et al., 1991 for the ε-G compounds)): 2.11
pKa of N7 ([6]; literature value as quoted): 5.20
